From ChEMBL document CHEMBL3880399 (2004)
Active and inactive are the calls of the source. The calls are words filed in the database; no cut-off is given here.

Experiments:
[1] = tested on: Mus musculus; assay: Reduction in d-amphetamine-induced hyperactivity in sc dosed mouse; format: functional
[2] = tested on: Homo sapiens; assay: Potentiation of levadopa-induced improvements in parkinsonian symptoms in parkinsonian patient administered orally once daily for four weeks with dose escalating once each week (30 mg on week2, 70 mg on week3, 150 mg on week 4 and 300 mg on week 5) in placebo controlled study lasting for 5 weeks measured on first day of each dose escalation; format: functional
[3] = tested on: Rattus norvegicus; assay: Antipsychotic activity in rat assessed as reduction in MK-801-induced locomotor behaviors at 1 mg/kg, ip; format: functional, organism-based

Structure (SMILES): O=C(CCCN1CCC(O)(c2ccc(Cl)cc2)CC1)c1ccc(F)cc1
- Activity [1]: Dose-dependent effect

Structure (SMILES): CN1CCN(C2=Nc3cc(Cl)ccc3Nc3ccccc32)CC1 [CLOZAPINE]
- EC50 [2]: 6.4 nM
- Activity [3]: Active
